Laboratory results from patent publication US20190321365A1, “Maintenance Therapy for the Treatment of Cancer” (Aslan Pharmaceuticals Pte. Ltd., priority 2016, published 2019).
Read-outs that look alike come from different tables or passages of the source.

Assays:
breast cancer = conditions: cited from earlier work
[1] = tested on: squamous cell carcinoma of the cervix; experiment: Example 1: maintenance therapy, patient with squamous cell carcinoma of the cervix; assay type: in vivo, human; conditions: 300 mg bi-daily; one patient, progressing after radiation and chemotherapy
Experimental: A patient diagnosed with squamous cell carcinoma of the cervix was initially treated with radiation therapy and concurrent weekly cisplatin. They had recurring disease the following year. They subsequently received a number of lines of chemotherapy, including topotecan/cisplating and ifosfamide. The cancer continued to progress.
They received 300 mg bi-daily of varlitinib for 6.5 years.
The patient received varlitinib maintenance therapy for about 6.5 years before developing transitional cell carcinoma of the bladder. It is likely that this bladder carcinoma was a result receiving pelvic radiation and/or treatment with ifsoamide.

[2] = tested on: intrahepatic cholangiocarcinoma; experiment: Example 3: trial ASLAN001-002SG, maintenance monotherapy, patient with intrahepatic cholangiocarcinoma; assay type: in vivo, human
Source text: A person ([…]/0013) had the past history of meningioma post left craniotomy for tumor excision in 2007. They were diagnosed with intrahepatic cholangiocarcinoma in July 2013, and received left hemihepatectomy followed by adjuvant chemotherapy (gemcitabine plus cisplatin) from 14 Aug. 2013 to 8 Jan. 2014. Disease relapse was found in […]. Thus, they received systemic treatment with gemcitabine plus cisplatin from 13th May to 1 Jul. 2015. They joined the clinical trial, […]. The study treatment of bi-weekly FOLFOX plus continuous 400 mg varlitinib per oral twice a day started on 4 Aug. 2015. […] 2015, varlitinib was interrupted and reduced to 300 mg twice a day in combination with FOLFOX. After 9 cycles (14 days/cycle) of combined regimen, they continue varlitinib monotherapy.

[3] = tested on: choloangiocarcinoma (CCA); experiment: Example 2: maintenance monotherapy, patient with cholangiocarcinoma; assay type: in vivo, human
Experimental: A person with choloangiocarcinoma (CCA), namely […] adenocarcinoma had already received surgery, was administered varlitinib at a dose of 400 mg bi-daily in combination with doublet chemotherapy for six 28-day cycles. Varlitinib was then used as maintenance therapy as monotherapy for 10 additional cycles, of 28 days of treatment.

stage IV gastric cancer [4] = experiment: Example 7: trial ASLAN001-002, maintenance monotherapy, patient with stage IV gastric cancer; assay type: in vivo, human
Experimental: A person (ASLAN001-002 2B302) had the underlying disease of gastro-esophageal reflux disease. They were diagnosed with stage IV gastric cancer in Jul. 2016.
They joined the clinical trial, ASLAN001-002. The study treatment of cisplatin/capecitabine plus continuous 300 mg varlitinib per oral twice a day started on 6 Sep. 2016. After 6 cycles (21 days/cycle) of combined regimen, they continue varlitinib monotherapy. The total treatment duration of varlitinib maintenance therapy was 134 days. […] The study treatment was discontinued due to disease progression.

stage IV bladder cancer = experiment: Example 6: trial ASLAN001-002SG, maintenance monotherapy, patient with stage IV bladder cancer; assay type: in vivo, human
Source text: A person (ASLAN001-002SG DNT/0012) had the past history of type 2 diabetes mellitus, atrial fibrillation, hypertension, hyperlipidemia, and grade 1 hearing loss. They were diagnosed with stage IV bladder cancer and received radical cystoprostatectomy on 13 Dec. 2013. They also received cisplatin based concurrent radiotherapy on 20 Feb. 2014, and gemcitabine plus cisplatin from 10 Apr. to 8 May 2015.
They joined the clinical trial, ASLAN001-002SG. The study treatment of bi-weekly FOLFOX plus continuous 300 mg varlitinib per oral twice a day started on 24 Aug. 2015. After 9 cycles (14 days/cycle) of combined regimen, they continued varlitinib monotherapy. The total treatment duration of varlitinib maintenance therapy was 140 days. […] The study treatment was discontinued due to disease progression.

[5] = tested on: gastric tumors co-expressing EGFR and HER2 or HER2 amplified; experiment: Phase I monotherapy trial in gastric cancer patients, tumor biopsies by immunohistochemistry; assay type: in vivo, human; conditions: 23 patients, 500 mg orally twice daily, monotherapy for 28 days; biopsies before and after treatment
Experimental: It has been tested as a monotherapy in phase I clinical trials of gastric cancer patients. 23 patients, who had previously failed on one or more rounds of chemotherapy and, where eligible, trastuzumab, each received 500 mg of ASLAN001 orally twice daily as monotherapy for 28 days. Tumor biopsies taken before and after treatment were analysed using immunohistochemistry.

[6] = General tolerability in patients; assay type: in vivo, human; conditions: in comparison to many anti-cancer treatments
[7] = tested on: stage IV cholangiocarcinoma; experiment: Example 4: trial ASLAN001-002, maintenance monotherapy, patient with stage IV cholangiocarcinoma; assay type: in vivo, human
Experimental: A person (ASLAN001-002 2A101) had the past history of type 2 diabetes mellitus and hypertension for more than 10 years. They were diagnosed with stage IV cholangiocarcinoma in November 2014.
They joined the clinical trial, ASLAN001-002. The study treatment of cisplatin/5-FU plus continuous 400 mg varlitinib per oral twice a day started on 27 Jan. 2015.
After 6 cycles (28 days/cycle) of combined regimen, […] continued 400 mg varlitinib monotherapy for another 99 days. […] The total treatment duration of varlitinib maintenance therapy was 287 days.
The study treatment was discontinued due to disease progression.

stage IV gastric cancer [8] = experiment: Example 5: trial ASLAN001-002, maintenance monotherapy, patient with stage IV gastric cancer; assay type: in vivo, human
Experimental: A person (ASLAN001-002 2A102) had the past history of hypertension for more than 5 years. They were diagnosed with stage IV gastric cancer in April 2015.
They joined the clinical trial, ASLAN001-002. The study treatment of cisplatin/5-FUplus continuous 400 mg varlitinib per oral twice a day started on 12 May 2015. After 6 cycles (28 days/cycle) of combined regimen, they continued 400 mg varlitinib monotherapy for another 112 days. […] The total treatment duration of varlitinib maintenance therapy was 243 days. […] The study treatment was discontinued due to disease progression.

[9] = women who didn't take hormone replacement therapy

CC/C(=C(\c1ccccc1)c1ccc(OCCN(C)C)cc1)c1ccccc1 [tamoxifen]
reduction of the risk of breast cancer (breast cancer; women at high risk, long-term study): 29%
effect on the risk of estrogen-receptor-negative breast cancer (breast cancer; women at high risk): didn't reduce the risk
reduction of the risk of estrogen-receptor-positive breast cancer (breast cancer; women at high risk): 35%
reduction of the risk of breast cancer (breast cancer; [9]): 38%
reduction of the risk of estrogen-receptor-positive disease (breast cancer; [9]): 45%

C[C@@H]1COC(Nc2ccc3ncnc(Nc4ccc(OCc5nccs5)c(Cl)c4)c3c2)=N1 [varlitinib, (R)-N4-[3-Chloro-4-(thiazol-2-ylmethoxy)-phenyl]-N6-(4-methyl-4,5,-dihydro-oxazol-2-yl)-quinazoline-4,6-diamine]
duration of maintenance therapy before developing transitional cell carcinoma of the bladder [1]: about 6.5 years
adverse event leading to interruption and dose reduction ([2]; 400 mg per oral twice a day in combination with bi-weekly FOLFOX): grade 3 hyperbilirubinemia
tumor status ([2]; after 504 days of maintenance treatment): partial response
duration of maintenance treatment to date ([2]; person, monotherapy after 9 cycles with FOLFOX, 300 mg twice a day, ongoing): 504 days
adverse event leading to dose reduction ([3]; monotherapy 400 mg bi-daily, at cycle 10 day 15): increase in G3 creatinine levels
target lesion during maintenance therapy ([3]; period of 10 cycles of maintenance therapy): no target lesion was observed
disease status during maintenance therapy ([3]; person, stage VI adenocarcinoma, monotherapy 400 then 300 mg bi-daily, 10 cycles of 28 days, after six cycles with doublet chemotherapy): stable disease
best tumor response (stage IV gastric cancer [4]; human, in vivo): stable disease
total treatment duration of maintenance therapy (stage IV gastric cancer [4]; person, monotherapy after 6 cycles of cisplatin/capecitabine plus 300 mg twice a day, discontinued due to disease progression): 134 days
best tumor response (stage IV bladder cancer; human, in vivo): stable disease
total treatment duration of maintenance therapy (stage IV bladder cancer; person, monotherapy after 9 cycles of FOLFOX plus 300 mg twice a day, discontinued due to disease progression): 140 days
signs of clinical activity in tumor biopsies [5]: downregulation of signalling pathways responsible for cell proliferation, and a reduction in cell survival and cell proliferation
tolerability [6]: very well tolerated
adverse event leading to dose tapering ([7]; after 99 days of 400 mg monotherapy): creatinine increase
best tumor response ([7]; non-target disease): non-complete response/non-progressive disease
total treatment duration of maintenance therapy ([7]; person, 400 mg monotherapy, then 300 mg twice a day 1 week on and 1 week off, discontinued due to disease progression): 287 days
adverse event leading to dose tapering (stage IV gastric cancer [8]; after 112 days of 400 mg monotherapy): creatinine increase
best tumor response (stage IV gastric cancer [8]; human, in vivo): partial response
total treatment duration of maintenance therapy (stage IV gastric cancer [8]; person, 400 mg monotherapy, then 300 mg twice a day, discontinued due to disease progression): 243 days
